Laboratory results: ChEMBL document CHEMBL5131466, “Discovery and development of labdane-oxindole hybrids as small-molecule inhibitors against chikungunya virus infection” (Eur J Med Chem, 2022)

How the values were obtained:
[1] = Cytotoxicity against human HeLa CCL2 cells assessed as reduction in cell viability measured after 24 hrs by Alamar blue assay; assay type: functional
Chikungunya virus [2] = experiment: Antiviral activity against CHIKV 122508 infected in […] BHK-21 cells assessed as reduction in viral titer at MOI of 1 measured after 24 hpi by viral plaque assay; assay type: functional, organism-based; settings: Chikungunya virus, 122508, BHK-21
[3] = Selectivity index, ratio of CC50 for cytotoxicity against human HeLa CCL2 cells to EC50 for antiviral activity against CHIKV 122508 infected in human HeLa CCL2 cells; assay type: toxicity, cell-based; settings: read-out: Ratio CC50/EC50
Chikungunya virus [4] = experiment: Antiviral activity against CHIKV 122508 infected in human HeLa CCL2 cells assessed as inhibition of viral replication at MOI of 1 at 10 uM incubated for 24 hpi by viral plaque assay; assay type: functional; set-up: unit not given here; settings: time 24 hrs

Compound | CC50 [1] [µM] | EC50 (Chikungunya virus [2]) [µM] | selectivity ratio [3] | Activity (Chikungunya virus [4])
C=C1CC[C@H]2C(C)(C)CCC[C@]2(C)[C@H]1C/C=C1/C(=O)Nc2ccc(Br)cc21 | 77.2 | 7.4 | 10 | 
C=C1CC[C@H]2C(C)(C)CCC[C@]2(C)[C@H]1C/C=C1/C(=O)Nc2cc(C(F)(F)F)ccc21 | 77.2 | 7.41 | 10 | 
C=C1CC[C@@H]2[C@](C)(CO)[C@H](O)CC[C@@]2(C)[C@@H]1C/C=C1\SC(=S)NC1=O | > 100 |  |  | 
CC1=CC[C@H]2C(C)(C)CCC[C@]2(C)[C@H]1C/C=C1/C(=O)Nc2c(Cl)cccc21 | > 100 | 6.56 | 1.5 | 
C=C1CC[C@H]2C(C)(C)CCC[C@]2(C)[C@H]1C/C=C1\C(=O)Nc2ccc(F)cc21 | 15.7 | 6.62 | 2.4 | 
C=C1CC[C@H]2C(C)(C)CCC[C@]2(C)[C@H]1C/C=C1/C(=O)Nc2c1cccc2C(F)(F)F | > 100 | 1.64 | > 61 | 
C=C1[C@H](O)C[C@H]2C(C)(C)CCC[C@]2(C)[C@H]1C/C=C1/C(=O)Nc2ccccc21 | 15 | 1.29 | 12 | 
C=C1CC[C@@H]2[C@](C)(COC(C)=O)[C@H](OC(C)=O)CC[C@@]2(C)[C@@H]1C/C=C1/C(=O)Nc2ccccc21 | > 100 | 7.4 | > 14 | 
C=C1CC[C@H]2C(C)(C)CCC[C@]2(C)[C@H]1C/C=C1/C(=O)Nc2cc(Br)ccc21 | 8.3 |  |  | 
CC1=CC[C@H]2C(C)(C)CCC[C@]2(C)[C@H]1C/C=C1/C(=O)Nc2ccccc21 | 18.6 | 3.22 | 5.8 | 
C=C1CC[C@H]2C(C)(C)CCC[C@]2(C)[C@H]1C/C=C1/C(=O)Nc2c(Br)cccc21 | > 100 | 1.27 | > 79 | 
C=C1[C@H](O)C[C@H]2C(C)(C)CCC[C@]2(C)[C@H]1C/C=C1\C(=O)Nc2c(Cl)cccc21 | 13.4 | 0.002 | 6700 | 2.1
C=C1CC[C@H]2C(C)(C)CCC[C@]2(C)[C@H]1C/C=C1/C(=O)Nc2cc(F)ccc21 | 9 | 0.46 | 20 | 
C=C1CC[C@H]2C(C)(C)CCC[C@]2(C)[C@H]1C/C=C1\C(=O)Nc2ccc(Cl)cc21 | 18.3 | 4.1 | 4.5 | 
C=C1CC[C@H]2C(C)(C)CCC[C@]2(C)[C@H]1C/C=C1\C(=O)Nc2c(F)cccc21 | 26.9 | 0.08 | 336 | 2
C=C1CC[C@H]2C(C)(C)CCC[C@]2(C)[C@H]1C/C=C1/C(=O)NC(=O)c2ccccc21 | 50.5 | 3.46 | 15 | 
C=C1[C@H](O)C[C@H]2C(C)(C)CCC[C@]2(C)[C@H]1C/C=C1\C(=O)Nc2ccccc21 | 20 | 1.41 | 14 | 
C=C1CC[C@@H]2[C@](C)(CO)[C@H](O)CC[C@@]2(C)[C@@H]1C/C=C1/C(=O)N(C(C)=O)c2ccccc21 | > 100 |  |  | 
C=C1CC[C@H]2C(C)(C)CCC[C@]2(C)[C@H]1C/C=C1\C(=O)Nc2c(Cl)cccc21 | 59.7 | 10.5 | 5.7 | 
C=C1CC[C@H]2C(C)(C)CCC[C@]2(C)[C@H]1C/C=C1\C(=O)Nc2cc(Br)ccc21 | 19.6 | 7.5 | 2.6 | 
C=C1CC[C@@H]2[C@](C)(COC(C)=O)[C@H](OC(C)=O)CC[C@@]2(C)[C@@H]1C/C=C1\C(=O)Nc2ccccc21 | > 100 | 8.3 | > 12 | 
C=C1CC[C@@H]2[C@](C)(CO)[C@H](O)CC[C@@]2(C)[C@@H]1C/C=C1\C(=O)N(C(C)=O)c2ccccc21 | > 100 |  |  | 
C=C1CC[C@H]2C(C)(C)CCC[C@]2(C)[C@H]1C/C=C1\C(=O)Nc2cc(C)ccc21 | 37.2 | 11.6 | 3.2 | 

Compound | CC50 [1] [µM] | EC50 (Chikungunya virus [2]) [µM] | selectivity ratio [3] | Activity (Chikungunya virus [4])
C=C1CC[C@H]2C(C)(C)CCC[C@]2(C)[C@H]1C/C=C1/C(=O)Nc2ccc(C)cc21 | 15.2 | 0.02 | 758 | 3.7
C=C1CC[C@@H]2[C@](C)(CO)[C@H](O)CC[C@@]2(C)[C@@H]1C/C=C1\C(=O)N(C)c2ccccc21 | > 100 |  |  | 
C=C1CC[C@H]2C(C)(C)CCC[C@]2(C)[C@H]1C/C=C1/C(=O)Nc2ccc(Cl)cc21 | 36.1 | 1.3 | 27 | 
C=C1CC[C@H]2C(C)(C)CCC[C@]2(C)[C@H]1C/C=C1\C(=O)Nc2cccc(C)c21 | 49.9 | 0.72 | 69 | 
C=C1CC[C@H]2C(C)(C)CCC[C@]2(C)[C@H]1C/C=C1/C(=O)Nc2ccc(C(F)(F)F)cc21 | 6.66 |  |  | 
C=C1CC[C@H]2C(C)(C)CCC[C@]2(C)[C@H]1C/C=C1\C(=O)Nc2cc(F)ccc21 | 14.2 | 0.21 | 67 | 
C=C1CC[C@H]2C(C)(C)CCC[C@]2(C)[C@H]1C/C=C1\C(=O)Nc2ccc(C(F)(F)F)cc21 | > 16.2 | 2.63 | > 6.1 | 
CC1=CC[C@H]2C(C)(C)CCC[C@]2(C)[C@H]1C/C=C1\C(=O)Nc2ccccc21 | 17 | 5.69 | 3 | 
C=C1CC[C@H]2C(C)(C)CCC[C@]2(C)[C@H]1C/C=C1\C(=O)Nc2cc(Cl)ccc21 | 15.6 |  |  | 
C=C1CC[C@H]2C(C)(C)CCC[C@]2(C)[C@H]1C/C=C1\C(=O)Nc2cccc(Cl)c21 | 37.2 | 5.4 | 6.8 | 
CC1=CC[C@H]2C(C)(C)CCC[C@]2(C)[C@H]1C/C=C1\C(=O)Nc2c(Cl)cccc21 | 194 | 9.35 | 21 | 
C=C1CC[C@H]2C(C)(C)CCC[C@]2(C)[C@H]1C/C=C1\C(=O)Nc2ccc(Br)cc21 | 20.6 | 1.8 | 11 | 
C=C1CC[C@H]2C(C)(C)CCC[C@]2(C)[C@H]1C/C=C1\C(=O)Nc2c1cccc2C(F)(F)F | > 100 | 8.77 | > 11 | 
C=C1CC[C@H]2C(C)(C)CCC[C@]2(C)[C@H]1C/C=C1\C(=O)Nc2c(OC)cccc21 | 23.4 | 0.03 | 780 | 1.5
C=C1CC[C@H]2C(C)(C)CCC[C@]2(C)[C@H]1C/C=C1\C(=O)Nc2cc(C(F)(F)F)ccc21 | 52.8 | 3.07 | 17 | 
C=C1CC[C@H]2C(C)(C)CCC[C@]2(C)[C@H]1C/C=C1/C(=O)Nc2cc(Cl)ccc21 | 5.7 |  |  | 
C=C1CC[C@H]2C(C)(C)CCC[C@]2(C)[C@H]1C/C=C1/C(=O)Nc2ccccc21 | 41.6 | 2.8 | 15 | 
C=C1CC[C@@H]2[C@](C)(CO)[C@H](O)CC[C@@]2(C)[C@@H]1CCC1C(=O)Nc2ccccc21 (some centres undefined) | > 100 |  |  | 
C=C1CC[C@H]2C(C)(C)CCC[C@]2(C)[C@H]1C/C=C1\C(=O)Nc2ccccc21 | > 100 | 7.23 | > 14 | 
C=C1CC[C@@H]2[C@](C)(CO)[C@H](O)CC[C@@]2(C)[C@@H]1C/C=C1\C(=O)Nc2ccccc21 | > 100 | 5.85 | > 17 | 
C=C1CC[C@@H]2[C@](C)(CO)[C@H](O)CC[C@@]2(C)[C@@H]1C/C=C1/C(=O)N(C)c2ccccc21 | > 100 |  |  | 
C=C1CC[C@H]2C(C)(C)CCC[C@]2(C)[C@H]1C/C=C1\C(=O)Nc2cccc(Br)c21 | 27.1 | 0.44 | 62 | 
